A short description of test [1]: viability loss in Vero cells – cytotoxicity control for Vif-APOBEC3G degradation inhibitor project, dose response (AID 1117358). In kind it is functional. Conditions: Vero.
The target of test [2] is DNA dC->dU-editing enzyme APOBEC-3A (Homo sapiens, UniProt P31941). Nature of the test: Dose Response confirmation of small molecule APOBEC3A DNA Deaminase Inhibitors via a fluorescence-based single-stranded DNA deaminase assay. [Related pubchem assays (depositor defined):AID493011, AID493024]. The class given is functional.
Test [3] addresses DNA dC->dU-editing enzyme APOBEC-3G (Homo sapiens, UniProt Q9HC16). In kind it is functional.
Test [4] concerns the target T1, Carboxy-terminal domain RNA polymerase II polypeptide A small phosphatase 1 (Homo sapiens, UniProt Q9GZU7).
T1 sequence (Q9GZU7 whole entry): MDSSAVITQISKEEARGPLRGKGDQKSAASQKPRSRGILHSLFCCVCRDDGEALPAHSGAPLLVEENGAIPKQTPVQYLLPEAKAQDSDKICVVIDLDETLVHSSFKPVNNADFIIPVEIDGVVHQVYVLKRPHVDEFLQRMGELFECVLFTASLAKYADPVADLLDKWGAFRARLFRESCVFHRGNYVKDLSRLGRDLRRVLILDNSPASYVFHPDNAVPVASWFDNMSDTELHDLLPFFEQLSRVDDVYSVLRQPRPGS
As to the kind of experiment: CTDSP1 inhibitors, concentration-response, biochemical, absorbance readout, ultra-high-throughput screen actives (AID 540297). The class given is functional.

In the next test the target is Protein Tat (Human immunodeficiency virus type 1 group M subtype B (isolate HXB2)(HIV-1), UniProt P04608). The class given is functional.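 Note: tat binding to TAR RNA read out by fluorescence polarization.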
For test [5], the target named is E3 ubiquitin-protein ligase Mdm2 (Homo sapiens, UniProt Q00987). Nature of the test: MDM2-luc reporter signal enhancers, multi-concentration potency testing, MDM2 ubiquitin-protein ligase inhibitor program, whole-cell format, luminescence detection, 384-well microplate (AID 1394).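 Note: MDM2 E3 inhibitors raise luminescence so EC50 is for signal enhancement.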 In kind it is functional.
Test [6] is described as follows: Late stage counterscreen for inhibitors of Trypanosoma brucei methionyl tRNA synthetase (MetRS): Luminescence-based cell-based high throughput dose response assay to identify compounds that are cytotoxic to Jurkat human T lymphocyte cells. The class given is functional.
Test [7] is described as follows: viability inhibitors of stage V gametocytes – luminescence, dose response (AID 1117278).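 Note: gametocytes exposed to compound for 24 hours.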 In kind it is functional, cell-based.
The nature of test [8]: viability loss in human Jurkat cells – cell-based, luminescence, cytotoxicity control for P. falciparum gametocyte viability project, dose response (AID 1117277).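 Note: potency reflects loss of cellular ATP meaning fewer viable cells.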 In kind it is functional.
Test [9] deals with DNA damage-inducible transcript 3 protein (Mus musculus, UniProt P35639). The class given is functional, Cricetulus griseus.
A short description of test [10]: HIV-1 Vif–A3G interaction blockers – biochemical, TR-FRET, GST-Vif 1-94, biotin-A3G peptide, dose response retest, primary screen (AID 1117319).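 Note: TR-FRET signal of purified GST-Vif binding a biotinylated A3G peptide; inhibitors lower the FRET signal by blocking Vif and A3G binding.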 In kind it is functional.
The nature of test [11]: Luminescence Cell-Based Dose Confirmation HTS to Identify Inhibitors of Platelet Dense Granule Release. [Related pubchem assays: 1663 (Primary HTS), 1678 (Summary of Project)]. The class given is functional.
Test [12] addresses Luciferin 4-monooxygenase (Photinus pyralis, UniProt P08659). As to the kind of experiment: inhibition of purified Photinus pyralis luciferase – biochemical, luminescence, dose response (AID 1891).
For test [13], the target named is COUP transcription factor 2 (Homo sapiens, UniProt P24468). As to the kind of experiment: Luminescence-based cell-based high throughput dose response assay to identify inhibitors of COUP-TFII (NR2F2). The class given is functional.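 Note: HEK293 cells transiently cotransfected with COUP-TFII expression vector and reporter; luciferase reporter luminescence driven by COUP-TFII from the pX2-168 reporter plasmid.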
The nature of test [14]: Luminescence-based counterscreen assay for KLF5 inhibitors: dose response cell-based high throughput screening assay to identify cytotoxic compounds using the IEC-6 intestinal epithelial cell line. [Related pubchem assays: 1700 (Primary screen.), 1834 (Confirmation screen.), 1858 (Summary AID.), 1905 (Counterscreen.)]. The class given is functional.
The target in test [15] is T2, Heat shock factor protein 1 (Mus musculus, UniProt P38532).
T2 sequence (P38532 whole entry): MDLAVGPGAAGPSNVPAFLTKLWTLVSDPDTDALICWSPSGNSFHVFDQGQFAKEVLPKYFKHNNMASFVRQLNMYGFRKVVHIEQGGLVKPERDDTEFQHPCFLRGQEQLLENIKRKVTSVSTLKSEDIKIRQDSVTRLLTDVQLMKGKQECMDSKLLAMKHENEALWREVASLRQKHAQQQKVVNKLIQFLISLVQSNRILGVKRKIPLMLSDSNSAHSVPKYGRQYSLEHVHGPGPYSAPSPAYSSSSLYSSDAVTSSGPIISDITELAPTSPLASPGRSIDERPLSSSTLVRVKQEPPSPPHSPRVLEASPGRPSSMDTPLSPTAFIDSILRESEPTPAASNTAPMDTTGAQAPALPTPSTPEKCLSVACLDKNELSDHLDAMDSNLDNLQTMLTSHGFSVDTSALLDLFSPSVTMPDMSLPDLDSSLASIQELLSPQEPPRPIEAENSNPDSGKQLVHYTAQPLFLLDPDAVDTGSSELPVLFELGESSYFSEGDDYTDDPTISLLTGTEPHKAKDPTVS
As to the kind of experiment: decrease of HSF1-responsive luciferase luminescence – cell-based, NIH3T3, dose retest, confirmation (AID 2382).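 Note: NIH3T3 fibroblasts with HSF1-driven luciferase reporter stressed by proteasome inhibitor MG132; luminescence from HSF1-driven luciferase expression after 8 hours of MG132 stress.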 In kind it is functional.

The target of the next test is Vasopressin V1b receptor (Homo sapiens, UniProt P47901). Nature of the test: Late-stage results from the probe development effort to identify antagonists of arginine vasopressin receptor 1a (AVPR1a): fluorescence-based cell-based dose response AVPR1b inhibition counterscreen assay. In kind it is functional.
The next test has as its target Vasopressin V2 receptor (Homo sapiens, UniProt P30518). As to the kind of experiment: Late-stage results from the probe development effort to identify antagonists of arginine vasopressin receptor 1a (AVPR1a): fluorescence-based cell-based dose response AVPR2 inhibition counterscreen assay. The class given is functional.
A short description of test [16]: Late-stage results from the probe development effort to identify antagonists of arginine vasopressin receptor 1a (AVPR1a): fluorescence-based cell-based dose response OXTR inhibition counterscreen assay. The class given is functional.
Test [17] in a line: Late-stage results from the probe development effort to identify antagonists of arginine vasopressin receptor 1a (AVPR1a): fluorescence-based cell-based dose response AVPR1a inhibition assay. In kind it is functional.

Molecules are shown by their SMILES. Activity calls are given as the source filed them.

Vasopressin V1b receptor, sequence (P47901 whole entry): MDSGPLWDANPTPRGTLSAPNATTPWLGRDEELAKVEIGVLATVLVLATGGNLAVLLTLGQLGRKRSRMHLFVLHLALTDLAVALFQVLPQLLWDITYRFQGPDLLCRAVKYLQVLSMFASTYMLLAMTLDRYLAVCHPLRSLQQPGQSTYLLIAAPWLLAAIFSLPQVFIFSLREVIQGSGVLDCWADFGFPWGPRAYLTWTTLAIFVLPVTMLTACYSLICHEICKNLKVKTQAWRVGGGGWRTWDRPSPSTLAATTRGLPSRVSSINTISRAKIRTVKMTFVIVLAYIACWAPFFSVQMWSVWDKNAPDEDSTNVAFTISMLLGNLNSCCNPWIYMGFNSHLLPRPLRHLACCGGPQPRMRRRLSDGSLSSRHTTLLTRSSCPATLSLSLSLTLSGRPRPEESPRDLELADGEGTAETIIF
Vasopressin V2 receptor, sequence (P30518 whole entry): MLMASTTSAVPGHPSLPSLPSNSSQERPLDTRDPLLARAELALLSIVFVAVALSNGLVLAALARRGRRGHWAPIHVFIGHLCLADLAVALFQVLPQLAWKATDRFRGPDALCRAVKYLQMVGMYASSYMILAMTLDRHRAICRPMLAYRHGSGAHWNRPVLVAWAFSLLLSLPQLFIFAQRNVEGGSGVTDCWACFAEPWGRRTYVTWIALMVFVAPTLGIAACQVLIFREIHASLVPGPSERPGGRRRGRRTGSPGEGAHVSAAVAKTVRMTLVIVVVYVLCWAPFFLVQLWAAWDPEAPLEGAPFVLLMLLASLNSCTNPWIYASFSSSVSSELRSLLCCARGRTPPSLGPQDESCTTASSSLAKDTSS
DNA damage-inducible transcript 3 protein, sequence (P35639 whole entry): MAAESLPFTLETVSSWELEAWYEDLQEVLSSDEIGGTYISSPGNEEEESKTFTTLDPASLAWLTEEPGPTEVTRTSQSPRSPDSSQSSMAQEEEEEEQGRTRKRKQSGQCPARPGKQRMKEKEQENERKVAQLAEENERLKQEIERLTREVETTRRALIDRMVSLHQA
COUP transcription factor 2, sequence (P24468 whole entry): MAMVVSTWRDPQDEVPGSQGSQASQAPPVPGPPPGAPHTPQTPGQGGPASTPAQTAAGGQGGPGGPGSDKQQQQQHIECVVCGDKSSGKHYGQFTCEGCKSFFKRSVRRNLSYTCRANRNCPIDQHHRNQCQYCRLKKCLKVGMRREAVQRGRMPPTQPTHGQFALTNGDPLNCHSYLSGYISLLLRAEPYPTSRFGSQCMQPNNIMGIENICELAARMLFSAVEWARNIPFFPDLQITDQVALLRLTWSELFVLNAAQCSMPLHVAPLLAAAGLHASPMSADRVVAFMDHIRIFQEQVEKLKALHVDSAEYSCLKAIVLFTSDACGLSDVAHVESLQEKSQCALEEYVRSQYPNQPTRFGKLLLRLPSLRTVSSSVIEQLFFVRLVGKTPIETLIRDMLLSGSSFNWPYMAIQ
DNA dC->dU-editing enzyme APOBEC-3G, sequence (Q9HC16 whole entry, the tested form may be a part): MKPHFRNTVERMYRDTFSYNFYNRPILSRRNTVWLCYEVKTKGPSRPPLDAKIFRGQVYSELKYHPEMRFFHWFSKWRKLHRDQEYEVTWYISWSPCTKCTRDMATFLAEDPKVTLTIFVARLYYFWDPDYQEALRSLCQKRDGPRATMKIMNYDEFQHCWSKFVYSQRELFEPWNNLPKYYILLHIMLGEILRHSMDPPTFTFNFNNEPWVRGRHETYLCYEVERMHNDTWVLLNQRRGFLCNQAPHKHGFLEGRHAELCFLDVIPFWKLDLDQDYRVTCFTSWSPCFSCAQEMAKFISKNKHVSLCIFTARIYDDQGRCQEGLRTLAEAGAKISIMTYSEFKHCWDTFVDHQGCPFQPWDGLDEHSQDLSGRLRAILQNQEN
E3 ubiquitin-protein ligase Mdm2, sequence (Q00987 whole entry): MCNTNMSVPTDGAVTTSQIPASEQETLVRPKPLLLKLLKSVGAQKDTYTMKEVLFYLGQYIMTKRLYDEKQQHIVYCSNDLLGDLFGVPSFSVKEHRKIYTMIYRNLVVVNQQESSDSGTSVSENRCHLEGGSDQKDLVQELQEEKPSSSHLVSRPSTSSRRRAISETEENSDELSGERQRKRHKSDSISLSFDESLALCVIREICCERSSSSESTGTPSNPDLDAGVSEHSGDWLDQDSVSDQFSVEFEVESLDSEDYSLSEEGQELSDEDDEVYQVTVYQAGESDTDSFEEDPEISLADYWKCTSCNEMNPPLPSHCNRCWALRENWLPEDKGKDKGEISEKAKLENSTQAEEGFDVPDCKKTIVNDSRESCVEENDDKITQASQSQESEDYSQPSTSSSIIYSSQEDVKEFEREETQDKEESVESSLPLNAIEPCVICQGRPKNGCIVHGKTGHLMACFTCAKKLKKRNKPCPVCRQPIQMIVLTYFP
DNA dC->dU-editing enzyme APOBEC-3A, sequence (P31941 whole entry): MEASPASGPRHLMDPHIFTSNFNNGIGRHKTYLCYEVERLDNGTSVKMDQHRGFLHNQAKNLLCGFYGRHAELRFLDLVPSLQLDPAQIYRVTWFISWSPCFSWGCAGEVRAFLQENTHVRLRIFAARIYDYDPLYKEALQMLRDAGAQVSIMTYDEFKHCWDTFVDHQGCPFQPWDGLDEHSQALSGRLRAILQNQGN
Protein Tat, sequence (P04608 whole entry): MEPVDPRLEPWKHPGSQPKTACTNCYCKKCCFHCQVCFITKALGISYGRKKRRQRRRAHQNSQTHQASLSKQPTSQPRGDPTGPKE
Luciferin 4-monooxygenase, sequence (P08659 whole entry): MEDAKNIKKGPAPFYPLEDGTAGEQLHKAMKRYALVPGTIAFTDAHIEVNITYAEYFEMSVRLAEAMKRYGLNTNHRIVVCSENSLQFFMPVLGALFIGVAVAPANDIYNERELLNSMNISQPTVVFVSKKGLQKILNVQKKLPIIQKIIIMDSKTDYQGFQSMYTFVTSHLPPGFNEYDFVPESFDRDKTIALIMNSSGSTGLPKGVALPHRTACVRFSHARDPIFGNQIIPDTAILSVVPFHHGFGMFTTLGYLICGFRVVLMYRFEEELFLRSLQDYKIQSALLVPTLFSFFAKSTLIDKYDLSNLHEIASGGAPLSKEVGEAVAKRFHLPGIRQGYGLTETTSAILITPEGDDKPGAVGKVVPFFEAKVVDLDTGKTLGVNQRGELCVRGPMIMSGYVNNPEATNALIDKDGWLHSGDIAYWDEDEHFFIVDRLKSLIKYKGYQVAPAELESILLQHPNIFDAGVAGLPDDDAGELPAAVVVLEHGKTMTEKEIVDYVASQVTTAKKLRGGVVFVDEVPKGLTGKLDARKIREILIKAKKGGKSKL

For the compound `Cc1cc(Cl)c(S(=O)(=O)NCC2CCCO2)cc1OCC(=O)NC1CCCCC1` (configuration not stated), the CC50 in [1] was > 40 µM (active).

Turning to `CCOC(=O)C1=C(COC(=O)/C=C/c2ccco2)NC(=O)NC1C` (configuration not stated), the IC50 in [2] was 15.9 µM (active); in test [3], 28.4 µM (active); in test [4] it was 4.25 µM (active); on Protein Tat, > 100 µM (active).

Turning to `CC1=C(C(=O)NC(C)CCc2ccccc2)C2(CCC(C)CC2)OC1=O` (configuration not stated), the EC50 in [5] is given as 78.3 µM (not active).

For `O=C(CC=NOCc1ccc([N+](=O)[O-])cc1)Nc1ccc(Cl)cc1`, the IC50 in [6] was > 83.3 µM (inactive).

Turning to `COc1ccc(CCN(C)CCCN2CC(c3ccccc3)CC2=O)cc1OC` (configuration not stated), the results for the IC50 in test [7] and in test [8] were > 109 µM (inactive) and > 83.3 µM (inactive), respectively.

Turning to `Cc1nc2nc(C)c(CCC(=O)NC3CCCCC3)c(C)n2n1`, the IC50 in test [7] is > 109 µM (inactive); in test [8] it was > 83.4 µM (inactive).

Consider `Oc1ccc(Cl)cc1-c1cc(-c2ccccc2)[nH]n1`, for which the CC50 in test [1] was > 40 µM (active). Besides, in test [9], the “Absolute IC50 (CHOP)” value came out at 10 µM. Moreover, the IC50 in test [10] is > 100 µM (active).

As to `COc1ccc(C(=O)Nc2ccccc2C(=O)N/N=C/c2ccc(O)c(OC)c2)cc1`, the EC50 in test [11] is 0.156 µM (active); in test [12], 0.149 µM (active); in [15], < 0.16 µM (active). Further, the IC50 in test [13] was > 9.49 µM (active); in [14], > 39.8 µM (not active).

With `Cc1cccc(N2CCC(C(=O)N(CC3CC3)c3ccc(Cl)cc3)CC2)n1`, the IC50 at Vasopressin V1b receptor was 17.6 µM (inactive); at Vasopressin V2 receptor, 6.1 µM (active); in test [16], 5.1 µM (active); in test [17], 0.0248 µM (active).

Regarding `O=C(N1CCC2(CC1)OCc1ccccc12)N(CC1CC1)c1ccccc1`, the IC50 was 25.1 µM (inactive) at Vasopressin V1b receptor, 20 µM (inactive) on Vasopressin V2 receptor, 20 µM (inactive) in test [16] and 0.466 µM (active) in [17].

The record behind these values is ChEMBL document CHEMBL1201862, “PubChem BioAssay data set” (2004).
